In US10934274B2, “Quinoline derivatives as TAM RTK inhibitors” (Qurient Co., Ltd., priority 2015, dated 2021):

What was measured:
Axl = target: T1, Axl (Homo sapiens, UniProt P30530); experiment: LanthaScreen Eu kinase binding assay, Axl; details: Tracer 236
T1 construct: purchased Life Technologies
T1 sequence (P30530 26-894): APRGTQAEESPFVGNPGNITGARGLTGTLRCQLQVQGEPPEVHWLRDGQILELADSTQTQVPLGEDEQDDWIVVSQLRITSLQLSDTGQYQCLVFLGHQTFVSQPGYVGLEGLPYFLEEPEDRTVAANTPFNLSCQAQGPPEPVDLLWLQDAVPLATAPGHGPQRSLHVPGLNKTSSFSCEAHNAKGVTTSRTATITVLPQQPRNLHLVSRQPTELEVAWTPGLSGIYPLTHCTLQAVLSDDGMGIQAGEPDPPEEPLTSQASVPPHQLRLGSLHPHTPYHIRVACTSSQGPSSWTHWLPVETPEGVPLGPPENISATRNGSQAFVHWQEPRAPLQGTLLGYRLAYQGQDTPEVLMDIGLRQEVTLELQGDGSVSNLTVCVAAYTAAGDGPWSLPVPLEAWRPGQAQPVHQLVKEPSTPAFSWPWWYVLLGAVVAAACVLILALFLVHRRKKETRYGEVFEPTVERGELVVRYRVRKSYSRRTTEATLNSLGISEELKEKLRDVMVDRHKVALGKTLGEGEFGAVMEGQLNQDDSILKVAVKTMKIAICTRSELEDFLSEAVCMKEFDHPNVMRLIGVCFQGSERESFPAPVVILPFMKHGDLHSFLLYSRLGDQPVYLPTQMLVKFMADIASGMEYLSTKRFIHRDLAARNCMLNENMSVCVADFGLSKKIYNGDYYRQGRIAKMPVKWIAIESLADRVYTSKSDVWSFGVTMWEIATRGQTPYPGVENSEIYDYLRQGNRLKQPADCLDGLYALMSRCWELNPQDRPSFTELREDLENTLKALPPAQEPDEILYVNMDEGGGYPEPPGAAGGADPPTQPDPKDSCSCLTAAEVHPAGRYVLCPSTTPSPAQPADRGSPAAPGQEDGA

TYRO3 = target: T2, TYRO3 (Homo sapiens, UniProt Q06418); experiment: LanthaScreen Eu kinase binding assay, TYRO3; details: Tracer 236
T2 construct: purchased Life Technologies
T2 sequence (Q06418 41-890): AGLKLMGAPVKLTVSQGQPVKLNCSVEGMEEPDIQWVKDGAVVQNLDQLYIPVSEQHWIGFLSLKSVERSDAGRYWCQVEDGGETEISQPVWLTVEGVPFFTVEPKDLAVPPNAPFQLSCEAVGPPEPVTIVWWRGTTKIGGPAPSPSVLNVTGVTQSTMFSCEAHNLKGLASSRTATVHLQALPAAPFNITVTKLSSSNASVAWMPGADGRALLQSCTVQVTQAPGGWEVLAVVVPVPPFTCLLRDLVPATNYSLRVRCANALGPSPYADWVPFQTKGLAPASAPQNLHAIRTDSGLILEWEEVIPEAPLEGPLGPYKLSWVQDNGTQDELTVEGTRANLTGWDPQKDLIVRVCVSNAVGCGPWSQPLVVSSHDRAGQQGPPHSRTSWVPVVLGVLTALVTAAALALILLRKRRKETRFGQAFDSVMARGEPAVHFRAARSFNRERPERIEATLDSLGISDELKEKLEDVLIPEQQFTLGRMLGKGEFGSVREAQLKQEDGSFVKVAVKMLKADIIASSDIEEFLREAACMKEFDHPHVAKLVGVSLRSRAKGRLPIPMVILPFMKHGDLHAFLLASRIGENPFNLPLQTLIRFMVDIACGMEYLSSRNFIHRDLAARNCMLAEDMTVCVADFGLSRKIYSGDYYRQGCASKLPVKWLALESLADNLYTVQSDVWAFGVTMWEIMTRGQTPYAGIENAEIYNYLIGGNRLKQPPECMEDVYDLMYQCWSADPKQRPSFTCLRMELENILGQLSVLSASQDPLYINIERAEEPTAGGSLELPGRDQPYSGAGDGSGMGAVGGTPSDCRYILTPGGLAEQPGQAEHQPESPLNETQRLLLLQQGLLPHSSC

| SMILES | Kd (Axl) [nM] | Kd (TYRO3) [nM] |
| --- | --- | --- |
| COc1cc2nccc(Oc3ccc(NC(=O)c4nn(-c5ccc(F)cc5Cl)cc4OCC4CC4)nc3)c2cc1OC [Compound 263] | < 100 | < 100 |
| CCOc1cnn(C)c1C(=O)Nc1ccc(Oc2ccnc3cc(OC)c(OC)cc23)cn1 [Compound 30] | ≥ 1000 | ≥ 1000 |
| CCOc1cn(-c2cnccn2)nc1C(=O)Nc1ccc(Oc2ccnc3cc(OC)c(OC)cc23)cn1 [Compound 36] | < 100 | < 100 |
| COc1cc2c(Oc3ccc(NC(=O)c4nn(-c5cnc(N)cn5)cc4OCC(F)(F)F)nc3)ccnc2cc1OC(C)C [Compound 253] | < 100 | < 100 |
| CCOc1cn(-c2ccco2)nc1C(=O)Nc1ccc(Oc2ccnc3cc(OC)c(OC)cc23)cn1 [Compound 57] | < 100 | < 100 |
| COc1cc2nccc(Oc3ccc(NC(=O)c4nn(-c5ccc(F)cc5OC)cc4OCC4CC4)nc3)c2cc1OC [Compound 264] | < 100 | < 100 |
| CCOc1cn(-c2cccnc2C)nc1C(=O)Nc1ccc(Oc2ccnc3cc(OC)c(OC)cc23)cn1 [Compound 23] | < 100 | < 100 |
| CCOc1cn(-c2cnccc2CCN(C)C)nc1C(=O)Nc1ccc(Oc2ccnc3cc(OC)c(OC)cc23)cn1 [Compound 65] | < 100 | < 100 |
| CCOc1cn(-c2cccnc2Cl)nc1C(=O)Nc1ccc(Oc2ccnc3cc(OC)c(OC)cc23)cn1 [Compound 19] | < 100 | < 100 |
| COc1cc2nccc(Oc3ccc(NC(=O)c4nn(-c5cnc(N)cn5)cc4OCC(F)(F)F)nc3)c2cc1OC [Compound 248] | < 100 | < 100 |
| COc1cc2nccc(Oc3ccc(NC(=O)c4nn(-c5cnccc5C(F)(F)F)cc4OCC4CC4)nc3)c2cc1OC [Compound 247] | < 100 | < 100 |
| COc1cc2nccc(Oc3ccc(NC(=O)c4nn(-c5cccnc5)cc4OCC4CC4)nc3)c2cc1OC(F)(F)F [Compound 239] | < 100 | < 100 |
| COc1cc2nccc(Oc3ccc(NC(=O)c4nn(-c5ccc(F)cc5Oc5ccccc5)cc4OCC4CC4)nc3)c2cc1OC [Compound 272] | 100 to 1000 | 100 to 1000 |
| COc1cc2nccc(Oc3ccc(NC(=O)c4nn(-c5cnc(N)nc5)cc4OC(C)C)nc3)c2cc1OC [Compound 260] | < 100 | < 100 |
| CCOc1cn(-c2cnc(N)nc2)nc1C(=O)Nc1ccc(Oc2ccnc3cc(OC(C)C)c(OC)cc23)cc1F [Compound 230] | < 100 | ≥ 1000 |
| CCOc1cn(CC2CCO2)nc1C(=O)Nc1ccc(Oc2ccnc3cc(OC)c(OC)cc23)cn1 (stereo not shown) [Compound 48] | < 100 | < 100 |

| SMILES | Kd (Axl) [nM] | Kd (TYRO3) [nM] |
| --- | --- | --- |
| CCOc1cn(-c2cnc(C#N)nc2)nc1C(=O)Nc1ccc(Oc2ccnc3cc(OC)c(OC)cc23)cn1 [Compound 55] | < 100 | < 100 |
| COc1cc2nccc(Oc3ccc(NC(=O)c4nn(-c5cnc(N)nc5)cc4OC(F)F)nc3)c2cc1OC [Compound 254] | < 100 | ≥ 1000 |
| CCOc1cnn(-c2ccco2)c1C(=O)Nc1ccc(Oc2ccnc3cc(OC)c(OC)cc23)cn1 [Compound 58] | < 100 | 100 to 1000 |
| CCOc1sc(-c2cccnc2)nc1C(=O)Nc1ccc(Oc2ccnc3cc(OC)c(OC)cc23)cn1 [Compound 45] | < 100 | < 100 |
| CCOc1cn(CCn2cccn2)nc1C(=O)Nc1ccc(Oc2ccnc3cc(OC)c(OC)cc23)cn1 [Compound 37] | < 100 | 100 to 1000 |
| CCOc1oc(-c2cccnc2)nc1C(=O)Nc1ccc(Oc2ccnc3cc(OC)c(OC)cc23)cn1 [Compound 44] | < 100 | ≥ 1000 |
| CCOc1cn(Cc2cnccc2C)nc1C(=O)Nc1ccc(Oc2ccnc3cc(OC)c(OC)cc23)cc1F [Compound 226] | < 100 | 100 to 1000 |
| CCOc1cn(C2CCN(C)C2)nc1C(=O)Nc1ccc(Oc2ccnc3cc(OC)c(OC)cc23)cc1F (stereo not shown) [Compound 212] | 100 to 1000 | 100 to 1000 |
| CCOc1cn(C2CCCN(C(N)=O)C2)nc1C(=O)Nc1ccc(Oc2ccnc3cc(OC)c(OC)cc23)cc1F (stereo not shown) [Compound 225] | < 100 | 100 to 1000 |
| COc1cc2nccc(Oc3ccc(NC(=O)c4nn(-c5cnc(N)nc5)cc4OCC4CNC4)nc3)c2cc1OC [Compound 265] | 100 to 1000 | ≥ 1000 |
| COc1cc2c(Oc3ccc(NC(=O)c4nn(-c5cnc(N)nc5)cc4OCC(F)(F)F)nc3)ccnc2cc1OC(C)C [Compound 257] | < 100 | < 100 |
| CCOc1cn(Cc2cnccn2)nc1C(=O)Nc1ccc(Oc2ccnc3cc(OC)c(OC)cc23)cc1F [Compound 215] | < 100 | < 100 |
| COc1cc2nccc(Oc3ccc(NC(=O)c4nn(-c5cccnc5)cc4OCC4CC4)nc3)c2cc1OC [Compound 255] | < 100 | < 100 |
| CCOc1cn(-c2ccc(C#N)cn2)nc1C(=O)Nc1ccc(Oc2ccnc3cc(OC)c(OC)cc23)cn1 [Compound 43] | ≥ 1000 | ≥ 1000 |
| CCOc1cnn(-c2cccs2)c1C(=O)Nc1ccc(Oc2ccnc3cc(OC)c(OC)cc23)cn1 [Compound 20] | < 100 | 100 to 1000 |
| COc1cc2nccc(Oc3ccc(NC(=O)c4nn(-c5ccc(F)cc5N5CCOCC5)cc4OCC4CC4)nc3)c2cc1OC [Compound 266] | < 100 | < 100 |
